The results in this text go back to article PMC3006138, “Fexinidazole – A New Oral Nitroimidazole Drug Candidate Entering Clinical Development for the Treatment of Sleeping Sickness” (PLoS Neglected Tropical Diseases, 2010).

Data set [1] in a line: Hepatocyte intrinsic clearance and metabolite profile. It is filed as in vitro ADME, cynomolgus monkey. The following applies: male, cynomolgus monkey, cryopreserved hepatocytes, 1 µM. On the procedure:
Fexinidazole was incubated with cryopreserved hepatocytes from male CD-1 mice, male Sprague Dawley rats, male beagle dogs, male cynomolgus monkeys, and from pooled white or African-American human donor samples (purchased commercially), at concentrations of 1 µM and 10 µM. […] The incubated samples were analyzed by LC-MS after extraction into acetonitrile.
A quality control analysis of fexinidazole was performed via 1H-NMR in DMSO and LC- […]
provided by the Swiss Tropical Institute (Basel, Switzerland).
Reagents and solvents were of analytical grade and obtained from Sigma-Aldrich (St. Louis, […]
Cryopreserved hepatocytes from the male CD1 mouse, lot CSI; male Sprague Dawley rat, lot LPL; male beagle dog, lot BWX; male cynomolgus monkey, lot EHH; and pooled human samples, lot MJI, were purchased from In Vitro Technologies Inc (Baltimore, Maryland, […]
5.4. In vitro Incubations
On the day of the experiment a 10 mM stock solution of fexinidazole in DMSO was prepared and, within 3 hours, aliquots of this freshly prepared solution, after suitable dilution, were added to the incubation matrix, to reach fexinidazole final concentrations of 1 and 10 µM. The final percentage of DMSO was 0.01% in the incubation samples for the […]
On the day of experiment, the cryopreserved hepatocytes were thawed following the detailed instructions provided by the supplier.
The number of viable cells was determined using a Trypan Blue exclusion method.
5.4.1. Intrinsic Clearance Study […]
µM with mouse, rat, dog, monkey and human hepatocytes (300000 cells/mL for the mouse and 1 million cells/mL for the other species) in a final incubation volume of 0.75 mL […]
Incubations were performed in duplicate in a 48-well plate under shaking. Sampling was performed using an automatic liquid handling system (Multiprobe II EX, Packard). At 0, 1, 5, 10, 15, 20, 30, 60 and 120 minutes, 50 µL aliquots of the incubates were taken, then 80 µL of ice-cold acetonitrile and 20 µL of 1 µM warfarin in acetonitrile (internal standard) were added, and samples centrifuged at 2000 rpm for 20 min. The supernatant was analyzed by LC-MS/MS. […]
the medium alone at t = 0 and 120 minutes.
For the determination of phase I and phase II activity of hepatocytes, 7-ethoxycoumarin (7-EC) 1 µM, and 7-hydroxycoumarin (7-HC) 30 µM were used as positive controls and incubated under the same conditions as fexinidazole. Aliquots of incubates were taken at 0, 10, 20, 30, 60 and 120 minutes and processed as fexinidazole samples.
5.4.2. Metabolite Profile Study
For metabolite profiling, fexinidazole was incubated at a concentration of 10 µM with mouse, rat, dog, monkey and human hepatocytes (300000 cells/mL for the mouse and 1 million cells/mL for the other species) in a final incubation volume of 2 mL Leibovitz L-15 […]
Aliquots of the incubation samples were taken at t = 0, 30 and 120 minutes; the metabolism was stopped by the addition of an equal volume of cold acetonitrile and the samples centrifuged at 1500 rpm for 20 min. The supernatant was stored at -20°C until analysis. Control incubations were performed with the compound in the medium alone […]
5.5. Analysis of Samples for Intrinsic Clearance Determination
The analysis of the samples for intrinsic clearance determination was performed by an LC-MS/MS method, using the following conditions:
HPLC Equipment and Conditions
HPLC system Agilent 1100 binary pump (Agilent, Palo Alto, USA)
Autosampler CTC Pal (Alfatech, San Jose, USA)
Analytical column Guard Column SB-C8 4.6 x 12.5 mm, 5 µm (Zorbax)
Column temperature ambient
Mobile phase A 10 mM ammonium formate pH 4.0: acetonitrile (95:5, v:v)
Mobile phase B 10 mM ammonium formate pH 4.0: acetonitrile (5:95, v:v) […]
Gradient conditions Step Total time (min) flow (µL/min) %A % B […]
MS Equipment and Conditions
Mass spectrometer API 4000 Triple Quadrupole (MDS-Sciex, Toronto, […]
Source Turbo Ion Spray (TIS)
Ion mode Positive for fexinidazole and 7-EC.
Negative for 7-HC, 7-HC sulphate and 7-HC glucuronide.

A further data set concerns T. b. brucei GVR35. The data set is described as follows: Chronic (stage 2) infection mouse model. It is filed as in vivo. On the procedure:
Female NMRI mice were infected via intraperitoneal injection with bloodstream forms of T. b. rhodesiense STIB900 or T. b. gambiense 130R and treated with test drugs daily for 4 consecutive days, starting on day 3 or 7 after infection, respectively, or with bloodstream forms of T. b brucei GVR35 and treated daily from day 21 after infection for 5 days. Parasitemia was evaluated by tail blood examination and surviving, aparasitaemic mice at 60, 90, or 180 days, respectively, were considered cured.

In the case of `CSc1ccc(OCc2ncc([N+](=O)[O-])n2C)cc1` [Fexinidazole, 1-methyl-2-((p-(methylthio)phenoxy)methyl)-5-nitroimidazole], the CLint scaled at 1 µM in data set [1] (read-out: CLint in vitro) came out at 390 L/h/kg. In data set [1] (cynomolgus), the half-life at 1 µM was 36 s. In addition, the hepatocyte CLint at 1 µM in data set [1] (cynomolgus, read-out: CLint in vitro) was determined as 1190 µL/min/1e6 cells. Also, the Cured/infected in the data set with T. b. brucei GVR35 (50 mg/kg×5 days po) is listed as 0/8; in the data set with T. b. brucei GVR35 (100 mg/kg×5 days po), 2/8; with T. b. brucei GVR35 (200 mg/kg×5 days po), 7/8. The Mean relapse time in the data set on T. b. brucei GVR35 (50 mg/kg×5 days po) was 41.3 days; in the data set with T. b. brucei GVR35 (100 mg/kg×5 days po), more than 82.1 days; with T. b. brucei GVR35 (200 mg/kg×5 days po) it was more than 163.8 days. Further, in the data set on T. b. brucei GVR35 (100 mg/kg twice per day for 5 days po, groups of 5 mice, two independent experiments), the cure amounted to 100%.

The half-life is how long it takes for the measured level to halve.
